# Source: ChEMBL document CHEMBL3885881, “DrugMatrix”
# Species on record: Rattus norvegicus
# Assay: DrugMatrix - Regimen: Daily Repeat
# Type: toxicity, organism-based, Sprague-Dawley
# Design: regimen Daily Repeat, gender Male, age 6-8 weeks
# Conditions: in vivo, po, route oral GAVAGE, vehicle 100 % SALINE; for ABSOLUTE BASOPHIL / ABSOLUTE EOSINOPHIL / ABSOLUTE LYMPHOCYTE / ABSOLUTE MONOCYTE / ABSOLUTE SEGMENTED NEUTROPHIL / BASOPHIL / EOSINOPHIL / ERYTHROCYTE COUNT / HEMATOCRIT / HEMOGLOBIN / LEUKOCYTE COUNT / LYMPHOCYTE / MEAN CORPUSCULAR HEMOGLOBIN / MEAN CORPUSCULAR HEMOGLOBIN CONCENTRATION / MEAN CORPUSCULAR VOLUME / MONOCYTE / NEUTROPHIL / NUCLEATED RED BLOOD CELLS / PLATELET COUNT: tissue Blood; for ALANINE AMINOTRANSFERASE / ALBUMIN / ALKALINE PHOSPHATASE / ASPARTATE AMINOTRANSFERASE / BLOOD UREA NITROGEN / CARBON DIOXIDE / CHLORIDE / CHOLESTEROL / CREATINE PHOSPHOKINASE / CREATININE / GLUCOSE / LACTATE DEHYDROGENASE / LIPASE / PHOSPHORUS / POTASSIUM / SODIUM / TOTAL BILIRUBIN / TOTAL PROTEIN / URIC ACID: tissue Plasma
# [1] = 0 mg/kg, 72 h, dose level Control, time 3 day
# [2] = 0 mg/kg, 120 h, dose level Control, time 5 day
# [3] = 29 mg/kg, 72 h, dose level Low, time 3 day
compound,measurement,setting,value
Cc1ccnc2c1NC(=O)c1cccnc1N2C1CC1 [NEVIRAPINE],ABSOLUTE BASOPHIL,[1],0 CELLS/uL
same,ABSOLUTE EOSINOPHIL,[1],37 CELLS/uL
same,ABSOLUTE LYMPHOCYTE,[1],12359.33 CELLS/uL
same,ABSOLUTE MONOCYTE,[1],122.67 CELLS/uL
same,ABSOLUTE SEGMENTED NEUTROPHIL,[1],847.67 CELLS/uL
same,BASOPHIL,[1],0%
same,EOSINOPHIL,[1],0.33%
same,ERYTHROCYTE COUNT,[1],5.75 x10E6/uL
same,HEMATOCRIT,[1],36.08%
same,HEMOGLOBIN,[1],14.07 G/DL
same,LEUKOCYTE COUNT,[1],13.37 x10E3/uL
same,LYMPHOCYTE,[1],92.5%
same,MEAN CORPUSCULAR HEMOGLOBIN,[1],24.47 pg
same,MEAN CORPUSCULAR HEMOGLOBIN CONCENTRATION,[1],38.98 G/DL
same,MEAN CORPUSCULAR VOLUME,[1],62.78 fL
same,MONOCYTE,[1],1%
same,NEUTROPHIL,[1],6.17%
same,NUCLEATED RED BLOOD CELLS,[1],0.17 /100WBC
same,PLATELET COUNT,[1],1202.17 x10E3/uL
same,ALANINE AMINOTRANSFERASE,[1],50.67 u/L
same,ALBUMIN,[1],4.13 G/DL
same,ALKALINE PHOSPHATASE,[1],356.33 u/L
same,ASPARTATE AMINOTRANSFERASE,[1],78.17 u/L
same,BLOOD UREA NITROGEN,[1],14.17 mg/dL
same,CARBON DIOXIDE,[1],31.33 mmol/L
same,CHLORIDE,[1],98.5 MEQ/L
same,CHOLESTEROL,[1],76.5 mg/dL
same,CREATINE PHOSPHOKINASE,[1],248.33 u/L
same,CREATININE,[1],0.2 mg/dL
same,GLUCOSE,[1],144 mg/dL
same,LACTATE DEHYDROGENASE,[1],107 u/L
same,LIPASE,[1],9.83 u/L
same,PHOSPHORUS,[1],12.8 mg/dL
same,POTASSIUM,[1],6.75 MEQ/L
same,SODIUM,[1],142 MEQ/L
same,TOTAL BILIRUBIN,[1],0.18 mg/dL
same,TOTAL PROTEIN,[1],5.98 G/DL
same,URIC ACID,[1],1.42 mg/dL
same,ABSOLUTE BASOPHIL,[2],0 CELLS/uL
same,ABSOLUTE EOSINOPHIL,[2],0 CELLS/uL
same,ABSOLUTE LYMPHOCYTE,[2],8681.17 CELLS/uL
same,ABSOLUTE MONOCYTE,[2],79.83 CELLS/uL
same,ABSOLUTE SEGMENTED NEUTROPHIL,[2],689 CELLS/uL
same,BASOPHIL,[2],0%
same,EOSINOPHIL,[2],0%
same,ERYTHROCYTE COUNT,[2],5.49 x10E6/uL
same,HEMATOCRIT,[2],33.55%
same,HEMOGLOBIN,[2],13.1 G/DL
same,LEUKOCYTE COUNT,[2],9.45 x10E3/uL
same,LYMPHOCYTE,[2],92.33%
same,MEAN CORPUSCULAR HEMOGLOBIN,[2],23.92 pg
same,MEAN CORPUSCULAR HEMOGLOBIN CONCENTRATION,[2],39.07 G/DL
same,MEAN CORPUSCULAR VOLUME,[2],61.22 fL
same,MONOCYTE,[2],0.67%
same,NEUTROPHIL,[2],7%
same,NUCLEATED RED BLOOD CELLS,[2],0.17 /100WBC
same,PLATELET COUNT,[2],1001.17 x10E3/uL
same,ALANINE AMINOTRANSFERASE,[2],49.33 u/L
same,ALBUMIN,[2],4.07 G/DL
same,ALKALINE PHOSPHATASE,[2],300.33 u/L
same,ASPARTATE AMINOTRANSFERASE,[2],83.5 u/L
same,BLOOD UREA NITROGEN,[2],16 mg/dL
same,CARBON DIOXIDE,[2],29.67 mmol/L
same,CHLORIDE,[2],100.5 MEQ/L
same,CHOLESTEROL,[2],74.33 mg/dL
same,CREATINE PHOSPHOKINASE,[2],489.67 u/L
same,CREATININE,[2],0.35 mg/dL
same,GLUCOSE,[2],151 mg/dL
same,LACTATE DEHYDROGENASE,[2],133.67 u/L
same,LIPASE,[2],11.17 u/L
same,PHOSPHORUS,[2],10.88 mg/dL
same,POTASSIUM,[2],5.5 MEQ/L
same,SODIUM,[2],145.7 MEQ/L
same,TOTAL BILIRUBIN,[2],0.2 mg/dL
same,TOTAL PROTEIN,[2],6.05 G/DL
same,URIC ACID,[2],0.68 mg/dL
same,ABSOLUTE BASOPHIL,[3],0 CELLS/uL
same,ABSOLUTE EOSINOPHIL,[3],29.67 CELLS/uL
same,ABSOLUTE LYMPHOCYTE,[3],8345.33 CELLS/uL
same,ABSOLUTE MONOCYTE,[3],0 CELLS/uL
same,ABSOLUTE SEGMENTED NEUTROPHIL,[3],725 CELLS/uL
same,BASOPHIL,[3],0%
same,EOSINOPHIL,[3],0.33%
same,ERYTHROCYTE COUNT,[3],5.42 x10E6/uL
same,HEMATOCRIT,[3],33.9%
same,HEMOGLOBIN,[3],13.2 G/DL
same,LEUKOCYTE COUNT,[3],9.1 x10E3/uL
same,LYMPHOCYTE,[3],91.67%
same,MEAN CORPUSCULAR HEMOGLOBIN,[3],24.43 pg
same,MEAN CORPUSCULAR HEMOGLOBIN CONCENTRATION,[3],38.93 G/DL
same,MEAN CORPUSCULAR VOLUME,[3],62.7 fL
same,MONOCYTE,[3],0%
same,NEUTROPHIL,[3],8%
same,NUCLEATED RED BLOOD CELLS,[3],0 /100WBC
same,PLATELET COUNT,[3],673.67 x10E3/uL
same,ALANINE AMINOTRANSFERASE,[3],74.33 u/L
same,ALBUMIN,[3],4.3 G/DL
same,ALKALINE PHOSPHATASE,[3],343.67 u/L
same,ASPARTATE AMINOTRANSFERASE,[3],123.67 u/L
same,BLOOD UREA NITROGEN,[3],10.33 mg/dL
same,CARBON DIOXIDE,[3],28.33 mmol/L
same,CHOLESTEROL,[3],68.67 mg/dL
same,CREATINE PHOSPHOKINASE,[3],179.33 u/L
same,CREATININE,[3],0.43 mg/dL
same,GLUCOSE,[3],142.67 mg/dL
same,LACTATE DEHYDROGENASE,[3],65.33 u/L
same,LIPASE,[3],15.67 u/L
same,PHOSPHORUS,[3],10.83 mg/dL
same,TOTAL BILIRUBIN,[3],0.13 mg/dL
same,TOTAL PROTEIN,[3],5.03 G/DL
same,URIC ACID,[3],0.37 mg/dL
same,ABSOLUTE BASOPHIL,"29 mg/kg, 120 h, dose level Low, time 5 day",0 CELLS/uL
